According to patent US10881110B2, “Herbicidal compositions comprising isoxazolo[5,4-b]pyridines” (BASF SE, priority 2014, dated 2021):
“And” between values parts separate entries of the source, which are not always exact repeats. Equal entries are not always repeated. Where two headings read alike, the source gives them in different places.

Legend:
Experiment in all cases: greenhouse post-emergence herbicidal test
ABUTH = type: in vivo, Abutilon theophrast; parameters: key to herbicidal activity against ABUTH found: rating on a scale from 0 to 100; details: post emergence; for pest or weed control at 31.25 g/ha / pest or weed control at 62.5 g/ha: Abutilon theophrasti, post-emergence, 480 h, read-out: herbicidal activity against ABUTH found
Method in brief: (§1)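 Greenhouse pots, loamy sand substrate (~4.6% humus, ~69.9% sand). Spray applied once plants reached 1–15 cm. Scoring 0–100, day 20.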

APESV = type: in vivo, Apera spica-venti; parameters: key to herbicidal activity against APESV found: rating on a scale from 0 to 100; details: post emergence; for pest or weed control at 31.25 g/ha / pest or weed control at 62.5 g/ha / pest or weed control at 125 g/ha: Apera spica-venti, post-emergence, 480 h, read-out: herbicidal activity against APESV found
Method in brief: as §1

ECHCG = type: in vivo, Echinochloa crus-galli; parameters: key to herbicidal activity against ECHCG found / herbicidal activity against ECHCH found: scale 0 to 100; details: post emergence
Method in brief: as §1

GERPU = type: in vivo, Geranium pusillum; details: application rate a.i.: I.1 31.25 g/ha
Procedure: The culture containers used were plastic pots containing medium loamy sand with approximately 4.6% of humus and 69.9% sand as substrate. The seeds of the test plants were sown separately for each species.
For the post-emergence treatment, the test plants were grown to a plant height of from 1 to 15 cm, depending on the plant habit, and only then treated with the active compounds which had been suspended or emulsified in water. To this end, the test plants were either sown directly, and grown in the same containers, or they were first grown separately as seedlings and transplanted into the test containers a few days prior to treatment.
Depending on the species, the plants were kept at 10-25° C. and 20-35° C., respectively.
The test period extended over 1 to 3 weeks. During this time, the plants were tended and their response to the individual treatments was evaluated 20 days after treatment except mentioned otherwise.
Evaluation was carried out using a scale from 0 to 100. 100 means no emergence of the plants, or complete destruction of at least the above-ground parts, and 0 means no damage or normal course of growth.
The respective stated components A and B, and, if appropriate, C, were formulated as a 10% by weight strength emulsion concentrate and, with addition of the amount of solvent system, introduced into the spray liquor used for applying the active compound. In the examples, the solvent used was water.
In the examples below, using the method of S. R. Colby (1967) “Calculating synergistic and antagonistic responses of herbicide combinations”, Weeds 15, p. 22 ff., the value E, which is expected if the activity of the individual active compounds is only additive, was calculated. E=X+Y−(X·Y/100)

SORVU = type: in vivo; details: 6 days after treatment
[1] = I.1 31.25 g/ha, B.88 1 g/ha a.i.
[2] = applied alone at 31.25 g/ha a.i.
[3] = g/ha a.i.: I.1 62.5, B.52 2.5, mixture 62.5+2.5
[4] = I.1 15.62 g/ha, B.95 1 g/ha a.i.

Structure (SMILES): O=C(O)c1cc(C2CC2)nc2onc(C3CC3)c12 [I.1]
- pest or weed control at 31.25 g/ha (ABUTH; I.1 alone 31.25 g/ha a.i.): 0%
- pest or weed control at 62.5 g/ha (ABUTH; I.1 alone 62.5 g/ha a.i.): 65%
- pest or weed control at 62.5 g/ha (ABUTH; 62.5 g/ha a.i.): 25%
- pest or weed control at 31.25 g/ha (ABUTH; I.1 31.25 g/ha a.i.): 20%
- pest or weed control at 31.25 g/ha (ABUTH; single active, 31.25 g/ha a.i.): 0%
- herbicidal activity against ABUTH found (ABUTH; 6 days after treatment, g/ha a.i.: I.1 31.25, B.96 35, mixture 31.25+35): 35
- herbicidal activity against ABUTH found (ABUTH; 6 days after treatment, g/ha a.i.: I.1 31.25, B.96 70, mixture 31.25+70): 35
- herbicidal activity against ABUTH found (ABUTH; 6 days after treatment, g/ha a.i.: I.1 31.25, naptalam 100, mixture 31.25+100): 35
- herbicidal activity against ABUTH found (ABUTH; [1]): 60
- herbicidal activity against ABUTH found (ABUTH; I.1 31.25 g/ha, B.89 25 g/ha a.i.): 60
- herbicidal activity against ABUTH found (ABUTH; I.1 62.5 g/ha, B.167 62.5 g/ha a.i.): 0
- herbicidal activity against ABUTH found (ABUTH; I.1 62.5 g/ha, B.167 125 g/ha a.i.): 0
- herbicidal activity against ABUTH found (ABUTH; a.i. g/ha: I.1 7.8, B.67 125, 20 days after treatment): 0%
- herbicidal activity against ABUTH found (ABUTH; a.i. g/ha: I.1 15.6, B.67 125, 20 days after treatment): 30%
- herbicidal activity against ABUTH found (ABUTH; a.i. g/ha: I.1 31.25, B.67 125, 20 days after treatment): 60%
- herbicidal activity against ABUTH found (ABUTH; a.i. g/ha: I.1 31.25, B.67 125, 20 days after treatment, sub-table r36-r43): 60%
- herbicidal activity against ABUTH found (ABUTH; a.i. g/ha: I.1 62.5, B.67 125, 20 days after treatment): 90%
- herbicidal activity against ABUTH found (ABUTH; a.i. g/ha: I.1 62.5, B.69 25, 20 days after treatment): 50%
- herbicidal activity against ABUTH found (ABUTH; application rate a.i.: I.1 20.8 g/ha, B.107 (topramezone) 6 g/ha, alone or as mixture (composition 1.107)): 0
- herbicidal activity against ABUTH found (ABUTH; application rate a.i.: I.1 31.25 g/ha, B.139 (pyroxasulfone) 25 g/ha, alone or as mixture (composition 1.139)): 10
- herbicidal activity against ABUTH found (ABUTH; application rate a.i.: I.1 62.5 g/ha, B.107 (topramezone) 6 g/ha, alone or as mixture (composition 1.107)): 66
- herbicidal activity against ABUTH found (ABUTH; [2]): 30 and 25
- herbicidal activity against ABUTH found (ABUTH; applied alone at 62.5 g/ha a.i.): 50 and 85
- herbicidal activity against ABUTH found (ABUTH; applied alone at 125 g/ha a.i.): 60
- herbicidal activity against ABUTH found (ABUTH; g/ha a.i.: I.1 31.25, B.20 2, mixture 31.25+2): 15
- herbicidal activity against ABUTH found (ABUTH; g/ha a.i.: I.1 31.25, B.20 4, mixture 31.25+4): 15
- herbicidal activity against ABUTH found (ABUTH; g/ha a.i.: I.1 31.25, B.24 2, mixture 31.25+2): 15
- herbicidal activity against ABUTH found (ABUTH; g/ha a.i.: I.1 31.25, B.52 2.5, mixture 31.25+2.5): 15
- herbicidal activity against ABUTH found (ABUTH; g/ha a.i.: I.1 31.25, B.52 5, mixture 31.25+5): 15
- herbicidal activity against ABUTH found (ABUTH; [3]): 60
- pest or weed control at 31.25 g/ha (APESV; I.1 alone 31.25 g/ha a.i.): 0%
- pest or weed control at 62.5 g/ha (APESV; I.1 alone 62.5 g/ha a.i.): 0%
- pest or weed control at 125 g/ha (APESV; I.1 alone 125 g/ha a.i.): 0%
- pest or weed control at 31.25 g/ha (APESV; 31.25 g/ha a.i.): 0%
- pest or weed control at 62.5 g/ha (APESV; 62.5 g/ha a.i.): 0%
- pest or weed control at 125 g/ha (APESV; I.1 125 g/ha a.i.): 15%
- pest or weed control at 31.25 g/ha (APESV; single active, 31.25 g/ha a.i.): 0%
- pest or weed control at 62.5 g/ha (APESV; single active, 62.5 g/ha a.i.): 0%
- pest or weed control at 125 g/ha (APESV; single active, 125 g/ha a.i.): 0%
- herbicidal activity against APESV found (APESV; I.1 15.62 g/ha, B.88 1 g/ha a.i.): 0
- herbicidal activity against APESV found (APESV; [4]): 0
- herbicidal activity against APESV found (APESV; [1]): 0
- herbicidal activity against APESV found (APESV; I.1 31.25 g/ha, B.88 2 g/ha a.i.): 0
- herbicidal activity against APESV found (APESV; I.1 62.5 g/ha, B.88 1 g/ha a.i.): 10
- herbicidal activity against APESV found (APESV; I.1 62.5 g/ha, B.88 2 g/ha a.i.): 10
- herbicidal activity against APESV found (APESV; I.1 62.5 g/ha, B.95 1 g/ha a.i.): 10
- herbicidal activity against APESV found (APESV; a.i. g/ha: I.1 2.3, B.67 62.5, 20 days after treatment): 0%
- herbicidal activity against APESV found (APESV; a.i. g/ha: I.1 6.9, B.67 62.5, 20 days after treatment): 0%
- herbicidal activity against APESV found (APESV; [2]): 0
- herbicidal activity against APESV found (APESV; applied alone at 125 g/ha a.i.): 15
- herbicidal activity against APESV found (APESV; g/ha a.i.: I.1 31.25, B.24 1, mixture 31.25+1): 20
- herbicidal activity against APESV found (APESV; g/ha a.i.: I.1 62.5, B.20 4, mixture 62.5+4): 20
- herbicidal activity against APESV found (APESV; [3]): 20
- herbicidal activity against APESV found (APESV; g/ha a.i.: I.1 125, B.52 2.5, mixture 125+2.5): 35
- pest or weed control at 31.25 g/ha (ECHCG; Echinochloa crus-galli, post-emergence, 480 h, I.1 alone 31.25 g/ha a.i., read-out: herbicidal activity against ECHCG found): 0%
- pest or weed control at 62.5 g/ha (ECHCG; Echinochloa crus-galli, post-emergence, 480 h, I.1 alone 62.5 g/ha a.i., read-out: herbicidal activity against ECHCG found): 45%
- pest or weed control at 31.25 g/ha (ECHCG; Echinochloa crus-galli, post-emergence, 480 h, 31.25 g/ha a.i., read-out: herbicidal activity against ECHCG found): 0%
- pest or weed control at 31.25 g/ha (ECHCG; Echinochloa crus-galli, post-emergence, 480 h, I.1 31.25 g/ha a.i., read-out: herbicidal activity against ECHCG found): 70%
- pest or weed control at 15.62 g/ha (ECHCG; Echinochloa crus-galli, post-emergence, 480 h, single active, 15.62 g/ha a.i., read-out: herbicidal activity against ECHCG found): 0%
- pest or weed control at 31.25 g/ha (ECHCG; Echinochloa crus-galli, post-emergence, 480 h, single active, 31.25 g/ha a.i., read-out: herbicidal activity against ECHCG found): 10%
- herbicidal activity against ECHCG found (ECHCG; I.1 15.62 g/ha, B.167 125 g/ha a.i.): 0
- herbicidal activity against ECHCG found (ECHCG; [4]): 10
- herbicidal activity against ECHCG found (ECHCG; I.1 31.25 g/ha, B.103 7.5 g/ha a.i.): 10
- herbicidal activity against ECHCG found (ECHCG; I.1 31.25 g/ha, B.167 125 g/ha a.i.): 10
- herbicidal activity against ECHCG found (ECHCG; I.1 62.5 g/ha, B.95 2 g/ha a.i.): 55
- herbicidal activity against ECHCH found (ECHCG; I.1 125 g/ha a.i.): 85
- herbicidal activity against ECHCG found (ECHCG; a.i. g/ha: I.1 20.8, B.67 62.5, 20 days after treatment): 30%
- herbicidal activity against ECHCG found (ECHCG; a.i. g/ha: I.1 62.5, B.67 62.5, 20 days after treatment): 65%
- herbicidal activity against ECHCG found (ECHCG; a.i. g/ha: I.1 62.5, B.79 25, 20 days after treatment): 65%
- herbicidal activity against ECHCG found (ECHCG; application rate a.i.: I.1 31.25 g/ha, B.40 (imazethapyr) 7.5 g/ha, alone or as mixture (composition 1.40)): 0
- herbicidal activity against ECHCG found (ECHCG; application rate a.i.: I.1 250 g/ha, B.193 15 g/ha, alone or as mixture (composition 1.193)): 95
- herbicidal activity against GERPU, found (GERPU; B.139 (pyroxasulfone) 12.5 g/ha, alone or as mixture (composition 1.139)): 80
- herbicidal activity against GERPU, found (GERPU; B.139 (pyroxasulfone) 25 g/ha, alone or as mixture (composition 1.139)): 80
- herbicidal activity against GERPU, found (GERPU; B.87 (carfentrazone-ethyl) 1.75 g/ha, alone or as mixture (composition 1.87)): 80
- herbicidal activity against SORVU found (SORVU; g/ha a.i.: I.1 31.25, B.96 140, mixture 31.25+140): 0
- herbicidal activity against SORVU found (SORVU; g/ha a.i.: I.1 62.5, naptalam 200, mixture 62.5+200): 20
